Experimental data published in patent publication US11396504B2, “Alkoxybenzo-five-membered (six-membered) heterocyclic amine compound and pharmaceutical use thereof” (FUDAN UNIVERSITY, priority 2018, dated 2022).

How the values were obtained:
SMS = settings: reported weak inhibitory activity; cited from earlier work
[1] = target: T1, Sphingomyelin Synthase 2 (SMS2 pure enzyme) (Homo sapiens, UniProt Q8NHU3); experiment: In vitro SMS2 pure enzyme inhibition, HPLC fluorogenic quantitative detecting method (C6-NBD-Ceramide to C6-NBD-SM); assay type: biochemical; settings: for IC50: SMS2 pure enzyme, five concentrations, three parallel groups, experimental value; for Selectivity ratio: SMS1 IC50 relative to SMS2 IC50
T1 construct: Yu, Cao research group of National Protein Science Center (Shanghai)
T1 sequence (Q8NHU3 1-365): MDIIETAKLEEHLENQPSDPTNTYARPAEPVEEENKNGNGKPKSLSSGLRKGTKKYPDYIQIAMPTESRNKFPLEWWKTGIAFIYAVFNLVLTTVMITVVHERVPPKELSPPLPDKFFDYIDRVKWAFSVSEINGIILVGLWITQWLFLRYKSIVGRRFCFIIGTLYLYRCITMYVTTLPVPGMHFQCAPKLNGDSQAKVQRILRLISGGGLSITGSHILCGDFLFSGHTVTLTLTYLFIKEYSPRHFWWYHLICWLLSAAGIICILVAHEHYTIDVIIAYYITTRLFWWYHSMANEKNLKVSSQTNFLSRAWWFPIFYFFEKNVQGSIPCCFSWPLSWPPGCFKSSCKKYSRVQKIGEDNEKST
Experimental: Add […] SMS2 pure enzyme DDM solution (total protein content 1.5 μg/μL), 1 μL test compound in DMSO solution or blank DMSO solution, 79.7 μL DDM buffer to 1.5 mL Eppendorf tube, vortex 30 seconds, let stand at room temperature for 5 min. Then add 20 μL DDM buffer containing 1 μL DMPC in ethanol (40 mmol/L) and 1 μL C6-NBD-Ceramide in DMSO (1.16 mmol/L). After vortexing for 30 seconds, Incubate for 0.5 h under water bath at 37° C. Then remove, add 200 μL of absolute ethanol, and vortex for 30 seconds. Take out 200 μL of the mixture and store it at 4° C. for high performance liquid chromatography analysis.
(§1) Using the same HPLC fluorogenic quantitative detecting method as reference (Xiaodong Deng; Hong Sun; et al. Analytical Letters, 2012, 45:12, 1581-1589) to analyses samples obtained above. Analysize and record peak areas of C6-NBD-SM (Asm) and C6-NBD-Ceramide (Acer) of each sample from blank group, positive control group (compound D2) and under tested compound group. Calculate inhibition rate from the formula below: […]
The DMSO stock solution of under tested compound (6 mM) was diluted stepwise into five concentration gradient. 1 μL solution of each concentration was added into the trial system to prepare samples with the method mentioned in the first step of application case 15. The Asm values of the five concentration solution of tested compound were measured (compound D2 is a positive control), and the inhibition rate under the five concentration were calculated and fitted to obtain median inhibitory concentration (IC50). Each compound was measured three parallel groups. SMS2 median inhibitory concentration and SMS1 single inhibitory concentration (50 μM) of Scheme I-1˜I-38, and SMS1 median inhibitory concentration of some compounds are listed below in Table 1.

[2] = target: T2, Sphingomyelin Synthase 1 (SMS1 pure enzyme) (Homo sapiens, UniProt Q86VZ5); experiment: In vitro SMS1 pure enzyme inhibition, HPLC fluorogenic quantitative detecting method; assay type: biochemical; settings: for inhibition at 50 µM: single concentration 50 μM
T2 construct: Yu, Cao research group of National Protein Science Center (Shanghai)
T2 sequence (Q86VZ5 1-413): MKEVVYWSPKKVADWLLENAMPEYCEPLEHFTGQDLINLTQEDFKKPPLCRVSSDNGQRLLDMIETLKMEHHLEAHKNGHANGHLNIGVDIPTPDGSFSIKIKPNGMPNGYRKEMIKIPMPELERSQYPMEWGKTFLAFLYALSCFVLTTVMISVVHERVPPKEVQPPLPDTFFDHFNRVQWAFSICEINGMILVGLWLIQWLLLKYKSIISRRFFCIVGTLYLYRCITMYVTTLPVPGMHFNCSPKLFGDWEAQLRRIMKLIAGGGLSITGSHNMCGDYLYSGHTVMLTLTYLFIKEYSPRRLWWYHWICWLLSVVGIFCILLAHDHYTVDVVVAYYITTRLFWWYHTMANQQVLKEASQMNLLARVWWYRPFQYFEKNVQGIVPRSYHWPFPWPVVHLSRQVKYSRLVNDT
Text: Referring to the above SMS2 inhibitory activity detection method, and using SMS1 pure enzyme instead of SMS2 pure enzyme for corresponding operation.
as §1
Part 4. Determination of SMS1 Median Inhibitory Concentration (IC50) and SMS1 Single Concentration (50 μM) Inhibitory Concentration of Alkoxybenzeno Five- or Six-Member Heterocyclic Amines (Scheme I-1˜I-38)
The experiment can be carried out with the corresponding concentration according to the operation similar to the determination of the median inhibitory concentration (IC50) of SMS2.

S=C(S)OC1CC2CC1C1CCCC21 (stereo not drawn) [Scheme D609]
IC50 (SMS): 375 µM

N#Cc1cccc(COc2cccc3onc(Nc4cccnc4)c23)c1 [Scheme I-23, 4-((3-Cyanobenzyl)oxy)-N-(pyridin-3-yl)benzo[d]isoxazol-3-amine]
IC50 [1]: 0.945 µM | inhibition at 50 µM [2]: 8%

Cc1cccc(C)c1COc1cccc2onc(Nc3cccnc3)c12 [Scheme I-25, 4-((2,6-Dimethylbenzyl)oxy)-N-(pyridin-3-yl)benzo[d]isoxazol-3-amine]
Selectivity ratio [1]: 307 | IC50 [1]: 0.153 µM | IC50 [2]: 47 µM | inhibition at 50 µM [2]: 53%

Clc1cccc(Cl)c1COc1cccc2onc(Nc3cccnc3)c12 [Scheme I-26, 4-((2,6-Dichlorobenzyl)oxy)-N-(pyridin-3-yl)benzo[d]isoxazol-3-amine]
Selectivity ratio [1]: 886 | IC50 [1]: 0.079 µM | IC50 [2]: 70 µM | inhibition at 50 µM [2]: 25%

Fc1cccc(F)c1COc1cccc2onc(Nc3cccnc3)c12 [Scheme I-27, 4-((2,6-Difluorobenzyl)oxy)-N-(pyridin-3-yl)benzo[d]isoxazol-3-amine]
IC50 [1]: 0.72 µM | inhibition at 50 µM [2]: 30%

c1ccc(COc2cccc3snc(Nc4cccnc4)c23)cc1 [Scheme I-31, 4-(benzyloxy)-N-(pyridin-3-yl)benzo[d]isothiazol-3-amine]
IC50 [1]: 1.46 µM | inhibition at 50 µM [2]: 13%

Fc1ccc(Cl)c(COc2cccc3onc(Nc4cncnc4)c23)c1 [Scheme I-33, 4-((2-chloro-5-fluorobenzyl)oxy)-N-(pyrimidin-5-yl)benzo[d]isoxazol-3-amine]
IC50 [1]: 0.86 µM | inhibition at 50 µM [2]: 60%

CCN(CC)CC(=O)Nc1noc2cccc(OCc3cc(F)ccc3Cl)c12 [Scheme I-35, N-(4-((2-chloro-5-fluorobenzyl)oxy)benzo[d]isoxazol-3-yl)-2-(diethylamino) acetamide]
IC50 [1]: > 10 µM | inhibition at 50 µM [2]: 11%

O=C(CN1CCCC1)Nc1noc2cccc(OCc3cc(F)ccc3Cl)c12 [Scheme I-36, N-(4-((2-chloro-5-fluorobenzyl)oxy)benzo[d]isoxazol-3-yl)-2-(pyrrolidin-1-y) acetamide]
IC50 [1]: > 10 µM | inhibition at 50 µM [2]: 9%

O=C(CN1CCCCC1)Nc1noc2cccc(OCc3cc(F)ccc3Cl)c12 [Scheme I-37, N-(4-((2-chloro-5-fluorobenzyl)oxy)benzo[d]isoxazol-3-yl)-2-(piperidin-1-yl)acetamide]
IC50 [1]: > 10 µM | inhibition at 50 µM [2]: 60%

O=C(CN1CCOCC1)Nc1noc2cccc(OCc3cc(F)ccc3Cl)c12 [Scheme I-38, N-(4-((2-chloro-5-fluorobenzyl)oxy)benzo[d]isoxazol-3-yl)-2-morpholinoacetamide]
IC50 [1]: > 10 µM | inhibition at 50 µM [2]: -1%

c1ccc(-c2cc(COc3cccc4onc(Nc5cccnc5)c34)ccn2)cc1 [Scheme I-39, 4-((2-phenylpyridin-4-yl)methoxy)-N-(pyridin-3-yl)benzo[d]isoxazol-3-amine]
IC50 [1]: 13 µM | inhibition at 50 µM [2]: -6%
